Data reported in PMC8579695, “The Stringent Response Inhibits 70S Ribosome Formation in Staphylococcus aureus by Impeding GTPase-Ribosome Interactions” (mBio, 2021).

Molecular target: HflX (Staphylococcus aureus, UniProt Q2FYY9)
Assay: GTPase activity assay of wild-type and Atto488-labeled HflX
Assay type: biochemical
Settings: 100 μM ppGpp, 1 μM GTP, 0.1 μM RA-GTPase, 0.1 μM 70S ribosomes, 37°C, 60 min
Source text: To gain further insight into the binding mechanism and how (p)ppGpp reduces the association of RA-GTPases to the ribosomal subunits, we used a stopped-flow technique with fluorescent derivatives of the RA-GTPases (Fig. 3A). Structural predictions of all four RA-GTPases were built by homology modeling using available structures to assess the availability of suitable residues for fluorescence labeling (see Fig. S3A and B) ([43]). Both RbgA and HflX were amenable to covalent linkage to the fluorophore Atto-488 using maleimide chemistry with exposed cysteine residues. […]
Supplementary file : FIG S3 Labeling sites and GTPase activity of Atto488-labelled proteins. […] Enzymatic activity was monitored by TLC and quantified by using ImageQuant. […]
GTPase activity assays were performed as previously described ([10]). Briefly, the ability of proteins to hydrolyze GTP was determined by incubating 100 nM recombinant protein with 100 nM S. aureus 70S ribosomes, 1 μM GTP and 2.78 nM [α-^32P]GTP in 40 mM Tris (pH 7.5), 100 mM NaCl (100 mM KCl for RbgA), and 10 mM MgCl2 at 37°C for the indicated times. […] The radioactive spots were exposed to a BAS-MS imaging plate (Fujifilm) and visualized using an LA 7000 Typhoon PhosphorImager (GE Healthcare), and images were quantified using ImageQuant (GE Healthcare).

Sequence of HflX (Q2FYY9 entry or part of it): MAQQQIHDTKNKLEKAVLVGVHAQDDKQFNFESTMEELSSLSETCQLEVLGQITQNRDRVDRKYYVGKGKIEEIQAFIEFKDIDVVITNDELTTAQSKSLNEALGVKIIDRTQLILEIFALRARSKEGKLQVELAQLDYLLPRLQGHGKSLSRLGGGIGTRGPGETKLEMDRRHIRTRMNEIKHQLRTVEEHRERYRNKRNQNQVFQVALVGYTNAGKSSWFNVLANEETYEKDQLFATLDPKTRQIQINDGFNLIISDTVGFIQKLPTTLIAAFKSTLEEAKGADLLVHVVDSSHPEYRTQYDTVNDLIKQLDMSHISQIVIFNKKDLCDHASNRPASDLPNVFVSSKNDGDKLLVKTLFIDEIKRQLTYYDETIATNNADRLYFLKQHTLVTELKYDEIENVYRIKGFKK

Question: `Nc1nc2c(ncn2[C@@H]2O[C@H](COP(=O)(O)OP(=O)(O)O)[C@@H](OP(=O)(O)OP(=O)(O)O)[C@H]2O)c(=O)[nH]1` [ppGpp] was tested. Which “inhibition of GTPase activity of Atto488-labeled HflX” value did it give?
Answer: can still be inhibited
